Assay results as given in patent US20260285850A1, “SUBSTITUTED OXAZOLIDINONES AND IMIDAZOLINONES AS HERBICIDES” (FMC CORPORATION, priority 2023, published 2026).

Legend:
Type in all cases: in vivo
[1] = tested on: green foxtail (Setaria viridis); test: Test A preemergence soil spray, visual injury rating 0-100; details: 10 days, 0 = no effect, 100 = complete control
Summary of the method: (§1)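 Visual injury, scored 0-100 (100 = complete control) against untreated plants, 10 days after greenhouse treatment. Test chemicals in surfactant-containing non-phytotoxic solvent were applied in loam soil and sand, as a preemergence soil spray on seeds or postemergence to plants at the one- to two-leaf stage.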

[2] = tested on: soybean (Glycine max); test: as above; details: 10 days, 0 = no effect, 100 = complete control
Summary of the method: as §1

[3] = tested on: blackgrass (Alopecurus myosuroides); test: as above; details: 10 days, 0 = no effect, 100 = complete control
Summary of the method: as §1

[4] = tested on: oat, wild (wild oat, Avena fatua); test: as above; details: 10 days, 0 = no effect, 100 = complete control
Summary of the method: as §1

[5] = tested on: wheat (Triticum aestivum); test: as above; details: 10 days, 0 = no effect, 100 = complete control
Summary of the method: as §1

[6] = tested on: ragweed (common ragweed, Ambrosia artemisiifolia); test: as above; details: 10 days, 0 = no effect, 100 = complete control
Summary of the method: as §1

[7] = tested on: ryegrass, Italian (italian ryegrass, Lolium multiflorum); test: as above; details: 10 days, 0 = no effect, 100 = complete control
Summary of the method: as §1

[8] = tested on: corn (Zea mays); test: as above; details: 10 days, 0 = no effect, 100 = complete control
Summary of the method: as §1

[9] = tested on: palmer (palmer amaranth, palmer pigweed, Amaranthus palmeri); test: as above; details: 10 days, 0 = no effect, 100 = complete control
Summary of the method: as §1

[10] = tested on: kochia (Bassia scoparia); test: as above; details: 10 days, 0 = no effect, 100 = complete control
Summary of the method: as §1

[11] = tested on: barnyardgrass (Echinochloa crus-galli); test: as above; details: 10 days, 0 = no effect, 100 = complete control
Summary of the method: as §1

[12] = tested on: galium (catchweed bedstraw, Galium aparine); test: Test A postemergence application, visual injury rating 0-100; details: 10 days
Summary of the method: as §1

[13] = tested on: green foxtail (Setaria viridis); test: as above; details: 10 days
Summary of the method: as §1

[14] = tested on: soybean (Glycine max); test: as above; details: 10 days
Summary of the method: as §1

[15] = tested on: blackgrass (Alopecurus myosuroides); test: as above; details: 10 days
Summary of the method: as §1

[16] = tested on: oat, wild (wild oat, Avena fatua); test: as above; details: 10 days
Summary of the method: as §1

[17] = tested on: wheat (Triticum aestivum); test: as above; details: 10 days
Summary of the method: as §1

[18] = tested on: ragweed (common ragweed, Ambrosia artemisiifolia); test: as above; details: 10 days
Summary of the method: as §1

[19] = tested on: ryegrass, Italian (italian ryegrass, Lolium multiflorum); test: as above; details: 10 days
Summary of the method: as §1

[20] = tested on: corn (Zea mays); test: as above; details: 10 days
Summary of the method: as §1

[21] = tested on: palmer (palmer amaranth, palmer pigweed, Amaranthus palmeri); test: as above; details: 10 days
Summary of the method: as §1

[22] = tested on: kochia (Bassia scoparia); test: as above; details: 10 days
Summary of the method: as §1

[23] = tested on: barnyardgrass (Echinochloa crus-galli); test: as above; details: 10 days
Summary of the method: as §1

[24] = tested on: horseweed (Erigeron canadensis); test: as above; details: 10 days
Summary of the method: as §1

[25] = tested on: barnyardgrass (Echinochloa crusgalli); test: Test B flooded paddy test, visual plant response rating 0-100; details: 250 g ai/ha, Flood, applied to paddy water, evaluated after 13 days
Summary of the method: (§2)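 In this flooded assay, 2-leaf seedlings received compound through the water layer, kept at 3 cm over the soil. Plants were held 13 days in a greenhouse and then visually compared with control pots.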

[26] = tested on: sedge, umbrella (small-flower umbrella sedge, Cyperus difformis); test: as above; details: 250 g ai/ha, Flood, applied to paddy water, evaluated after 13 days
Summary of the method: as §2

[27] = tested on: ducksalad (Heteranthera limosa); test: as above; details: 250 g ai/ha, Flood, applied to paddy water, evaluated after 13 days
Summary of the method: as §2

[28] = tested on: rice (Oryza sativa); test: as above; details: 250 g ai/ha, Flood, applied to paddy water, evaluated after 13 days
Summary of the method: as §2

[29] = 31 g ai/ha, postemergence, 0 = no effect, 100 = complete control
[30] = Postemergence, 125 g ai/ha, 0 is no effect, 100 is complete control

CC(C)COC(=O)C1C=CC(NC(=O)C2(C)CN(c3cc(F)cc(F)c3)C(=O)O2)C1 (stereo not shown) [Compound 56]
Foxtail, Green plant response rating (0-100) ([1]; 31 g ai/ha): 40 | Foxtail, Green plant response rating (0 to 100 scale) ([1]; 125 g ai/ha): 90 | Soybean plant response rating (0-100) ([2]; 31 g ai/ha): 30 | Soybean plant response rating (0 to 100 scale) ([2]; 125 g ai/ha): 80 | Blackgrass plant response rating (0-100) ([3]; 31 g ai/ha): 30 | Blackgrass plant response rating (0 to 100 scale) ([3]; 125 g ai/ha): 90 | Oat, Wild plant response rating (0-100) ([4]; 31 g ai/ha): 90 | Oat, Wild plant response rating (0 to 100 scale) ([4]; 125 g ai/ha): 90 | Wheat plant response rating (0-100) ([5]; 31 g ai/ha): 90 | Wheat plant response rating (0 to 100 scale) ([5]; 125 g ai/ha): 100 | Ragweed plant response rating (0-100) ([6]; 31 g ai/ha): 0 | Ragweed plant response rating (0 to 100 scale) ([6]; 125 g ai/ha): 0 | Ryegrass, Italian plant response rating (0-100) ([7]; 31 g ai/ha): 80 | Ryegrass, Italian plant response rating (0 to 100 scale) ([7]; 125 g ai/ha): 90 | Corn plant response rating (0-100) ([8]; 31 g ai/ha): 10 | Corn plant response rating (0 to 100 scale) ([8]; 125 g ai/ha): 90 | Amaranth, Palmer plant response rating (0-100) ([9]; 31 g ai/ha): 0 | Amaranth, Palmer plant response rating (0 to 100 scale) ([9]; 125 g ai/ha): 70 | Kochia plant response rating (0-100) ([10]; 31 g ai/ha): 0 | Kochia plant response rating (0 to 100 scale) ([10]; 125 g ai/ha): 90 | Barnyardgrass plant response rating (0-100) ([11]; 31 g ai/ha): 30 | Barnyardgrass plant response rating (0 to 100 scale) ([11]; 125 g ai/ha): 100 | Galium plant response rating (0-100) [12, 29]: 80 | Galium plant response rating (0 to 100 scale) [12, 30]: 80 | Foxtail, Green plant response rating (0-100) [13, 29]: 30 | Foxtail, Green plant response rating (0 to 100 scale) [13, 30]: 90 | Soybean plant response rating (0-100) [14, 29]: 70 | Soybean plant response rating (0 to 100 scale) [14, 30]: 70 | Blackgrass plant response rating (0-100) [15, 29]: 60 | Blackgrass plant response rating (0 to 100 scale) [15, 30]: 90 | Oat, Wild plant response rating (0-100) [16, 29]: 90 | Oat, Wild plant response rating (0 to 100 scale) [16, 30]: 90 | Wheat plant response rating (0-100) [17, 29]: 90 | Wheat plant response rating (0 to 100 scale) [17, 30]: 90 | Ragweed plant response rating (0-100) [18, 29]: 50 | Ragweed plant response rating (0 to 100 scale) [18, 30]: 70 | Ryegrass, Italian plant response rating (0-100) [19, 29]: 90 | Ryegrass, Italian plant response rating (0 to 100 scale) [19, 30]: 90 | Corn plant response rating (0-100) [20, 29]: 90 | Corn plant response rating (0 to 100 scale) [20, 30]: 100 | Amaranth, Palmer plant response rating (0-100) [21, 29]: 90 | Amaranth, Palmer / Pigweed, Palmer plant response rating (0 to 100 scale) [21, 30]: 80 | Kochia plant response rating (0-100) [22, 29]: 70 | Kochia plant response rating (0 to 100 scale) [22, 30]: 80 | Barnyardgrass plant response rating (0-100) [23, 29]: 90 | Barnyardgrass plant response rating (0 to 100 scale) [23, 30]: 100 | Horseweed plant response rating (0-100) [24, 29]: 20 | Horseweed plant response rating (0 to 100 scale) [24, 30]: 80 | Plant response rating, Barnyardgrass (0 to 100 scale, 0 is no effect and 100 is complete control) [25]: 95 | Plant response rating, Sedge, Umbrella (0 to 100 scale, 0 is no effect and 100 is complete control) [26]: 50 | Plant response rating, Ducksalad (0 to 100 scale, 0 is no effect and 100 is complete control) [27]: 90 | Plant response rating, Rice (0 to 100 scale, 0 is no effect and 100 is complete control) [28]: 15
